# According to patent US20240287071A1, “CLASS OF IMIDAZOLIDINOPYRIMIDONE COMPOUNDS AND USE THEREOF IN TREATMENT OF HSCLPP-MEDIATED DISEASES” (SICHUAN UNIVERSITY, priority 2021, published 2024):
# Biological target: HsClpP (Homo sapiens, UniProt Q16740)
# Experiment: HsClpP enzyme hydrolysis of short peptide substrate AC-WLA-AMC
# Conditions: promoting hydrolysis of short peptide substrate by HsClpP, relative to blank control
# HsClpP, sequence (Q16740 57-277): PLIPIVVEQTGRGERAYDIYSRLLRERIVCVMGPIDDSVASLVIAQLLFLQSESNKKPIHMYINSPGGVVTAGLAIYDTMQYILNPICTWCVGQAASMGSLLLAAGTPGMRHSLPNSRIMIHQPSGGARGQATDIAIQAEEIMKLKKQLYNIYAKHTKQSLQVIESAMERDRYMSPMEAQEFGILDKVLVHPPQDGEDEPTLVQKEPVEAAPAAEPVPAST
structure (smiles),measurement,value
"Cc1ccccc1CN1CCn2c1nc(=O)c1c2CCN(Cc2ccc(F)c(F)c2)C1 [Compound 36, 7-(3,4-difluorobenzyl)-3-(2-methylbenzyl)-2,3,6,7,8,9-hexahydroimidazo[1,2-a]pyrido[3,4-e]pyrimidin-5(1H)-one]",Regulatory efficacy 1 μM,+ +
same,Regulatory efficacy 10 μM,+ +
"Cc1ccccc1CN1CCn2c1nc(=O)c1c2CCN(C(=O)OC(C)(C)C)C1 [Compound 27, 7-tert-butoxycarbonyl-3-(2-methylbenzyl)-2,3,6,7,8,9-hexahydroimidazo[1,2-a]pyrido[3,4-e]pyrimid in-5(1H)-one]",Regulatory efficacy 1 μM,+ +
same,Regulatory efficacy 10 μM,+ +
"Cc1ccccc1CN1CCn2c1nc(=O)c1c2CCN(Cc2ccc(F)cc2)C1 [Compound 38, 7-(4-fluorobenzyl)-3-(2-methylbenzyl)-2,3,6,7,8,9-hexahydroimidazo[1,2-a]pyrido[3,4-e]pyrimidin-5(1H)-one]",Regulatory efficacy 1 μM,+ +
same,Regulatory efficacy 10 μM,+ +
"Cc1ccccc1CN1CCn2c1nc(=O)c1c2CCN(c2nncs2)C1 [Compound 45, 3-(2-methylbenzyl)-7-(1,3,4-thiadiazol-2-yl)-2,3,6,7,8,9-hexahydroimidazo[1,2-a]pyrido[3,4-e]pyri midin-5(1H)-one]",Regulatory efficacy 1 μM,+ (+ indicating that the increased efficacy is less than 50% of the blank control group)
same,Regulatory efficacy 10 μM,+ (+ indicating that the increased efficacy is less than 50% of the blank control group)
"O=c1nc2n(c3c1CN(Cc1ccccc1)CC3(F)F)CCN2CCc1ccccc1 [Compound 69, 7-Benzyl-9,9-difluoro-3-phenylethyl-2,3,6,7,8,9-hexahydroimidazo[1,2-a]pyrido[3,4-e]pyrimidin-5(1H)-one]",Regulatory efficacy 1 μM,+ +
same,Regulatory efficacy 10 μM,+ +
"COc1ccccc1CN1CCn2c1nc(=O)c1c2C(F)(F)CN(Cc2ccccc2)C1 [Compound 74, 7-Benzyl-9,9-difluoro-3-(2-methoxybenzyl)-2,3,6,7,8,9-hexahydroimidazo[1,2-a]pyrido[3,4-e]pyrimidin-5(1H)-one]",Regulatory efficacy 1 μM,+ +
same,Regulatory efficacy 10 μM,+ +
"O=c1nc2n(c3c1CN(Cc1ccccc1)CC3(F)F)CCN2Cc1ccc(F)c(F)c1 [Compound 80, 7-Benzyl-3-(3,4-difluorobenzyl)-9,9-difluoro-2,3,6,7,8,9-hexahydroimidazo[1,2-a]pyrido[3,4-e]pyrimidin-5(1H)-one]",Regulatory efficacy 1 μM,+ +
same,Regulatory efficacy 10 μM,+ +
"O=c1nc2n(c3c1CN(Cc1ccccc1)CC3(F)F)CCN2Cc1ccc(Cl)c(Cl)c1 [Compound 79, 7-Benzyl-3-(3,4-dichlorobenzyl)-9,9-difluoro-2,3,6,7,8,9-hexahydroimidazo[1,2-a]pyrido[3,4-e]pyrimidin-5(1H)-one]",Regulatory efficacy 1 μM,+ +
same,Regulatory efficacy 10 μM,+ +
Cc1ccccc1CN1CCn2c1nc(=O)c1c2CCN(CC2CC2)C1 [Compound 30],Regulatory efficacy 1 μM,+ (+ indicating that the increased efficacy is less than 50% of the blank control group)
same,Regulatory efficacy 10 μM,+ (+ indicating that the increased efficacy is less than 50% of the blank control group)
"N#Cc1cccc(CN2Cc3c(n4c(nc3=O)N(Cc3ccc(F)c(Br)c3)CC4)C(F)(F)C2)c1 [Compound 54, 3-((3-(3-bromo-4-fluorobenzyl)-9,9-difluoro-5-oxo-2,3,6,7,8,9-hexahydroimidazo[1,2-a]pyrido[3,4-e]pyrimidin-7(6H)-yl)methyl)benzonitrile]",Regulatory efficacy 1 μM,+ +
same,Regulatory efficacy 10 μM,+ +
"O=c1nc2n(c3c1CN(Cc1ccccc1)CC3)CCN2c1ccccc1 [Compound 9, 7-benzyl-3-phenyl-2,3,6,7,8,9-hexahydroimidazo[1,2-a]pyrido[3,4-e]pyrimidin-5(1H)-one]",Regulatory efficacy 1 μM,+ (+ indicating that the increased efficacy is less than 50% of the blank control group)
same,Regulatory efficacy 10 μM,+ +
"Cc1ccccc1CN1CCn2c1nc(=O)c1c2CCN(CCCCc2ccccc2)C1 [Compound 41, 3-(2-methylbenzyl)-7-(4-phenylbutyl)-2,3,6,7,8,9-hexahydroimidazo[1,2-a]pyrido[3,4-e]pyrimidin-5 (1H)-one]",Regulatory efficacy 1 μM,+ (+ indicating that the increased efficacy is less than 50% of the blank control group)
same,Regulatory efficacy 10 μM,+ (+ indicating that the increased efficacy is less than 50% of the blank control group)
"O=c1nc2n(c3c1CN(Cc1ccccc1)CC3)CCN2CCc1ccccc1 [Compound 10, 7-benzyl-3-(phenylethyl)-2,3,6,7,8,9-hexahydroimidazo[1,2-a]pyrido[3,4-e]pyrimidin-5(1H)-one]",Regulatory efficacy 1 μM,+ +
same,Regulatory efficacy 10 μM,+ +
"O=c1nc2n(c3c1CN(Cc1ccccc1)CC3)CCN2Cc1ccncc1 [Compound 24, 7-benzyl-3-(4-pyridinylmethyl)-2,3,6,7,8,9-hexahydroimidazo[1,2-a]pyrido[3,4-e]pyrimidin-5(1H)-one]",Regulatory efficacy 1 μM,+ (+ indicating that the increased efficacy is less than 50% of the blank control group)
same,Regulatory efficacy 10 μM,+ +
COC(=O)c1cccc(CN2CCn3c2nc(=O)c2c3C(F)(F)CN(Cc3cccc(C#N)c3)C2)c1 [Compound 51],Regulatory efficacy 1 μM,+ +
same,Regulatory efficacy 10 μM,+ +
"O=c1nc2n(c3c1CN(Cc1ccccc1)CC3(F)F)CCN2Cc1ccc(F)cc1F [Compound 81, 7-Benzyl-3-(2,4-difluorobenzyl)-9,9-difluoro-2,3,6,7,8,9-hexahydroimidazo[1,2-a]pyrido[3,4-e]pyrimidin-5(1H)-one]",Regulatory efficacy 1 μM,+ +
same,Regulatory efficacy 10 μM,+ +
"O=c1nc2n(c3c1CN(Cc1ccccc1)CC3)CCN2Cc1cccc(F)c1 [Compound 63, 7-Benzyl-3-(3-fluorobenzyl)-2,3,6,7,8,9-hexahydroimidazo[1,2-a]pyrido[3,4-e]pyrimidin-5(1H)-one]",Regulatory efficacy 1 μM,+ (+ indicating that the increased efficacy is less than 50% of the blank control group)
same,Regulatory efficacy 10 μM,+ +
"O=c1nc2n(c3c1CN(Cc1ccccc1)CC3)CCN2Cc1ccccc1F [Compound 62, 7-Benzyl-3-(2-fluorobenzyl)-2,3,6,7,8,9-hexahydroimidazo[1,2-a]pyrido[3,4-e]pyrimidin-5(1H)-one]",Regulatory efficacy 1 μM,+ +
same,Regulatory efficacy 10 μM,+ +
"Cc1ccccc1CN1CCn2c1nc(=O)c1c2CCN(C(=O)Cc2ccccc2)C1 [Compound 40, 3-(2-methylbenzyl)-7-(2-phenylacetyl)-2,3,6,7,8,9-hexahydroimidazo[1,2-a]pyrido[3,4-e]pyrimidin-5(1H)-one]",Regulatory efficacy 1 μM,+ (+ indicating that the increased efficacy is less than 50% of the blank control group)
same,Regulatory efficacy 10 μM,+ (+ indicating that the increased efficacy is less than 50% of the blank control group)
"O=c1nc2n(c3c1CN(Cc1ccccc1)CC3(F)F)CCN2Cc1ccc(Cl)cc1 [Compound 77, 7-Benzyl-3-(4-chlorobenzyl)-9,9-difluoro-2,3,6,7,8,9-hexahydroimidazo[1,2-a]pyrido[3,4-e]pyrimidi n-5(1H)-one]",Regulatory efficacy 1 μM,+ +
same,Regulatory efficacy 10 μM,+ +
"Cc1ccccc1CN1CCn2c1nc(=O)c1c2CCN(CC2CCCCC2)C1 [Compound 31, 7-cyclohexylmethyl-3-(2-methylbenzyl)-2,3,6,7,8,9-hexahydroimidazo[1,2-a]pyrido[3,4-e]pyrimidin-5(1H)-one]",Regulatory efficacy 1 μM,+ (+ indicating that the increased efficacy is less than 50% of the blank control group)
same,Regulatory efficacy 10 μM,+ +
